Measurements published in the supplement of paper PMC10307832.

Experiments:
Experiment in all cases: relative viability (nuclei count vs DMSO), 5 days (fraction); higher = more cells survive
Sulindac + Pictilisib = compound: CC1=C(CC(=O)O)c2cc(F)ccc2/C1=C\c1ccc([S+](C)[O-])cc1 [Sulindac] + CS(=O)(=O)N1CCN(Cc2cc3nc(-c4cccc5[nH]ncc45)nc(N4CCOCC4)c3s2)CC1 [Pictilisib] (partner 1 µM)
Procedure, shortened: (§1)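 For relative viability, nuclei counts in treated wells were divided by those in vehicle wells. Lung cancer cell lines had been pin-tool dosed in 1536-well plates the day after seeding and cultured for 5 days, then fixed and stained in one step (final 0.05% Triton X-100, 1% formaldehyde, 1 ug/ml Hoechst) and imaged at 4×. Doses were one drug alone or a fixed anchor-drug dose plus five library-drug doses (not always all listed) in √10 steps, and values are duplicate-plate medians.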

[1] = compound: CN[C@@H]1C[C@H]2O[C@@](C)([C@@H]1OC)n1c3ccccc3c3c4c(c5c6ccccc6n2c5c31)C(=O)NC4 [Staurosporine] + N=C(N)NC(=N)NCCc1ccccc1 [Phenformin] (partner 250 µM)
Procedure, shortened: as §1

Staurosporine + Olaparib = compound: CN[C@@H]1C[C@H]2O[C@@](C)([C@@H]1OC)n1c3ccccc3c3c4c(c5c6ccccc6n2c5c31)C(=O)NC4 [Staurosporine] + O=C(c1cc(Cc2n[nH]c(=O)c3ccccc23)ccc1F)N1CCN(C(=O)C2CC2)CC1 [Olaparib] (partner 8 µM)
Procedure, shortened: as §1

[2] = compound: O=c1[nH]cc(F)c(=O)[nH]1 [5-Fluorouracil] + C[C@@H](Oc1cc(-c2cnn(C3CCNCC3)c2)cnc1N)c1c(Cl)ccc(F)c1Cl [Crizotinib] (partner 1 µM)
Procedure, shortened: as §1

Cell Line	relative viability (Sulindac + Pictilisib; first compound 0.08 µM)	relative viability (Sulindac + Pictilisib; first compound 0.253 µM)	relative viability (Sulindac + Pictilisib; first compound 0.8 µM)	relative viability (Sulindac + Pictilisib; first compound 2.53 µM)	relative viability (Sulindac + Pictilisib; first compound 8 µM)	relative viability ([1]; first compound 0.005 µM)	relative viability ([1]; first compound 0.01581 µM)	relative viability ([1]; first compound 0.05 µM)	relative viability ([1]; first compound 0.1581 µM)	relative viability ([1]; first compound 0.5 µM)	relative viability (Staurosporine + Olaparib; first compound 0.005 µM)	relative viability (Staurosporine + Olaparib; first compound 0.01581 µM)	relative viability (Staurosporine + Olaparib; first compound 0.05 µM)	relative viability (Staurosporine + Olaparib; first compound 0.1581 µM)	relative viability (Staurosporine + Olaparib; first compound 0.5 µM)	relative viability ([2]; first compound 0.02 µM)	relative viability ([2]; first compound 0.2 µM)	relative viability ([2]; first compound 0.6325 µM)	relative viability ([2]; first compound 2 µM)
HCC-78	0.309	0.269	0.207	0.183	0.246	0.639	0.45	0.486	0.376	0.287	0.98	0.638	0.654	0.455	0.417	0.331	0.311	0.254	
HCC-366	0.149	0.13		0.0966	0.0889	0.708		0.519	0.283	0.0201	0.247		0.12	0.0287	0.0185	0.71	0.531	0.224	0.0745
HCC-827	0.922	1.17	0.823	0.88	1.06	0.43	0.35	0.214	0.167		0.666	0.5	0.467	0.322	0.22	0.859	0.891	0.604	0.416
HOP-62	1.01	0.864	0.831	0.758	0.978	0.426	0.232	0.133	0.102	0.1	0.441	0.157	0.0992	0.143	0.104	0.938	0.733	0.9	0.781
IA-LM	0.439	0.371		0.352	0.419						0.562	0.51	0.412	0.215	0.0689	1.03	0.401	0.254	0.289
LC-2-ad	0.63	0.533	0.34	0.416	0.445	0.485	0.2	0.154		0.171	0.684	0.546	0.483	0.154	0.0646	0.431	0.417	0.289	0.216
LCLC-97TM1	0.198	0.214	0.18		0.187	0.212	0.171	0.184	0.158	0.149	0.42	0.12	0.194	0.236	0.191	0.349	0.552	0.244	0.171
LCLC-103H	0.757	0.612	0.545	0.642	0.748	0.296	0.211	0.16	0.108	0.105	0.851	0.477	0.403	0.247		1.1	1.11	0.883	0.566
LK-2	0.551	0.675			0.558	0.676			0.127	0.126		0.432	0.518	0.289	0.0843	0.246		0.21	0.221
LOU-NH91	0.584	0.514	0.536	0.512	0.574	0.467	0.302	0.334	0.228	0.168	0.816	0.577	0.572	0.344	0.246	0.798	0.697	0.547	0.341
LU99A	0.33	0.31	0.301	0.267	0.344	0.671	0.335	0.353	0.24	0.162	0.228	0.164	0.141	0.138	0.121	0.579	0.521	0.521	0.384
LXF-289	0.955	0.796	0.769	0.823	0.848	0.325	0.0737	0.172	0.0511	0.0502	1.1	0.193	0.395	0.164	0.227	0.793	0.574	0.338	0.277
NCI-H522						0.783		0.594	0.41	0.405	0.669	0.685	0.53	0.471	0.429				
NCI-H1299	0.671	0.9	0.651	0.778	0.878						0.493	0.263	0.251	0.117		0.952	0.976	0.943	0.682
NCI-H1395	0.705	0.603	0.872	0.527	0.879	0.462	0.292	0.382	0.301	0.241	0.443	0.395	0.379	0.328	0.274				
NCI-H1563	0.609	0.662	0.665	0.65	0.622	0.566	0.533	0.577	0.506	0.416						0.798	0.806	0.892	0.699
NCI-H1623						0.574	0.578	0.631	0.59	0.306									
NCI-H1648											0.893	0.376	0.311	0.257	0.259				
NCI-H1703	0.229	0.238	0.219	0.229	0.291						0.269	0.165	0.237	0.112	0.106	0.83	0.564	0.378	0.479
NCI-H1793	0.275	0.329	0.271	0.351	0.344	0.453		0.357		0.129	0.815		0.3	0.15	0.14				
NCI-H2342						0.686		0.427	0.301	0.281	0.436	0.315	0.363	0.398	0.394				
SW 900						0.364	0.184	0.189	0.111	0.127	0.544	0.428	0.362	0.212	0.169				
